{"source": "patent US20250275986A1", "about": "“COMBINATION OF A KETONE BODY OR KETOGENIC COMPOUND WITH AN ANALGESIC OR ANTIOXIDANT” (KETOSWISS AG, priority 2021, published 2025)", "tested_on": "headache during an acute migraine attack", "assay": "Intensity of the headache (visual analogue scale 0 to 10) during acute migraine attacks in one migraine patient after intake of the substance(s)", "type": "in vivo, human", "protocol": "During the course of the trial, the patient had 17 recorded acute migraine attacks which were treated by either one of the following nine treatment regimes: • 1. 13 g flavoured mix of β-hydroxbutyrate (βHB) mineral salts termed “MigraKet” (a ketone body) • 2. 500 mg acetylsalicylic acid (a simple analgesic) • 3. 400 mg ibuprofen (a simple analgesic) • 4. 13 g MigraKet+500 mg acetylsalicylic acid (combination of a ketone body and a simple analgesic) • 5. 13 g MigraKet+400 mg ibuprofen (combination of a ketone body and a simple analgesic) • 6. 2.5 mg frovatriptan (a triptan) • 7. 13 g MigraKet+2.5 mg frovatriptan (combination of a ketone body and a triptan) • 8. 9 mg melatonin • 9. 13 g MigraKet+9 mg melatonin (combination of a ketone body and an antioxidant such as melatonin) The “MigraKet” consisted of:\n10g of a sodium, potassium, magnesium and calcium D-βHB mineral mix in a 1:1:2:2 ratio, and 3g of flavour (malic acid and natural lemon and lime flavour sweetend by stevia), dissolved in 0.51 of still water.\nThe intensity of the headache (pain) was recorded at the time of intake of the substance(s) (0h), and at five subsequent time-points during the course of one day (2h, 4 h, 8h, 12 h, 24h after substance intake). The intensity of the headache (pain) was categorized on a visual analogue scale from 0 (“no pain”) to 10 (“worst pain imaginable”). […]", "data": [{"smiles": "CN[C@@H]1CCc2[nH]c3ccc(C(N)=O)cc3c2C1", "note": "[Frovatriptan, frovatriptan]", "values": [{"measurement": "time for which the headache was eliminated", "setting": "after intake, melatonin with βHB: in 1 out of 2 instances, b14: taken when intensity about 0 to about 4", "value": "less than 12 h"}]}, {"smiles": "COc1ccc2[nH]cc(CCNC(C)=O)c2c1", "note": "[Melatonin, N-[2-(5-Methoxyindol-3-yl)ethyl]acetamid]", "values": [{"measurement": "effect on the headache in words", "setting": "over the course of 24 hours", "value": "did not ameliorate the headache"}]}]}
